This data set can be described thus: Permeability of the compound in PBS at pH 7.4 after 16 hrs by PAMPA. Format: ADME. The note with it: read-out: Peff.

As for `Cc1ncsc1-c1ccc([C@H](C)NC(=O)[C@@H]2C[C@@H](O)CN2C(=O)[C@@H](NC(=O)COCCCOCCNC(=O)C[C@@H]2N=C(c3ccc(Cl)cc3)c3c(sc(C)c3C)-n3c(C)nnc32)C(C)(C)C)cc1`, the Papp at 16 h turned out to be 0.2 ×10⁻⁶ cm/s.
As to `Cc1ncsc1-c1ccc(CNC(=O)[C@@H]2C[C@@H](O)CN2C(=O)[C@@H](NC(=O)COCCOCCOCCNC(=O)C[C@@H]2N=C(c3ccc(Cl)cc3)c3c(sc(C)c3C)-n3c(C)nnc32)C(C)(C)C)cc1`, the Papp at 16 h came to 0.01 ×10⁻⁶ cm/s.
